Laboratory results taken from US11753395B2 (Kinnate Biopharma Inc., priority 2021, dated 2023).

Experiments:
MET = target: T1, MET (Homo sapiens, UniProt P08581); assay: MET Mobility Shift Assay; conditions: biochemical assay IC50; 100 μM ATP, 60 minute kinase reaction
T1 construct: purchased Carna Biosciences 08-151
Protocol: (§1) Small molecule inhibition of MET kinase activity was evaluated using a fluorescence-based microfluidic mobility shift assay. MET catalyzes the production of ADP from ATP during phosphoryl transfer to the substrate peptide, FLPeptide30 (5-FAM-KKKKEEIYFFF-CONH2) (Perkin Elmer, 760430). MET enzme (Carna Biosciences, 08-151) at 0.625 nM was prepared with 10 mM MgCl2 and 1.5 μM substrate peptide in a buffer containing 50 mM HEPES, 1 mM EGTA, 0.01% Brij-35, 0.05% BSA, and 2 mM DTT and pre-incubated at room temperature for 30 min prior to the start of the reaction. 100 μM ATP was added to start the reaction. The mobility shift assay electrophoretically separates the fluorescently labeled peptides (substrate and phosphorylated product) following the 60 minute kinase reaction. The reaction was terminated by addition of 0.5 M EDTA. Both substrate and product were measured and the ratio of these values used to generate % conversion of substrate to product by the LabChip EZ reader (Perkin Elmer). ICso values were calculated using the inhibition of conversion ratio using Dotmatics Knowledge Solutions Studies curve fitting environment (Dotmatics, Bishops Stortford, UK, CM23) and are presented in Table 2.

MET D1228N = target: T2, MET D1228N (Homo sapiens, UniProt P08581, D1228N); assay: MET D1228N Mobility Shift Assay; conditions: biochemical assay IC50; 100 μM ATP, 60 minute kinase reaction
T2 construct: purchased Signalchem M52-12IG
T2 sequence (P08581 25-1390 D1228N): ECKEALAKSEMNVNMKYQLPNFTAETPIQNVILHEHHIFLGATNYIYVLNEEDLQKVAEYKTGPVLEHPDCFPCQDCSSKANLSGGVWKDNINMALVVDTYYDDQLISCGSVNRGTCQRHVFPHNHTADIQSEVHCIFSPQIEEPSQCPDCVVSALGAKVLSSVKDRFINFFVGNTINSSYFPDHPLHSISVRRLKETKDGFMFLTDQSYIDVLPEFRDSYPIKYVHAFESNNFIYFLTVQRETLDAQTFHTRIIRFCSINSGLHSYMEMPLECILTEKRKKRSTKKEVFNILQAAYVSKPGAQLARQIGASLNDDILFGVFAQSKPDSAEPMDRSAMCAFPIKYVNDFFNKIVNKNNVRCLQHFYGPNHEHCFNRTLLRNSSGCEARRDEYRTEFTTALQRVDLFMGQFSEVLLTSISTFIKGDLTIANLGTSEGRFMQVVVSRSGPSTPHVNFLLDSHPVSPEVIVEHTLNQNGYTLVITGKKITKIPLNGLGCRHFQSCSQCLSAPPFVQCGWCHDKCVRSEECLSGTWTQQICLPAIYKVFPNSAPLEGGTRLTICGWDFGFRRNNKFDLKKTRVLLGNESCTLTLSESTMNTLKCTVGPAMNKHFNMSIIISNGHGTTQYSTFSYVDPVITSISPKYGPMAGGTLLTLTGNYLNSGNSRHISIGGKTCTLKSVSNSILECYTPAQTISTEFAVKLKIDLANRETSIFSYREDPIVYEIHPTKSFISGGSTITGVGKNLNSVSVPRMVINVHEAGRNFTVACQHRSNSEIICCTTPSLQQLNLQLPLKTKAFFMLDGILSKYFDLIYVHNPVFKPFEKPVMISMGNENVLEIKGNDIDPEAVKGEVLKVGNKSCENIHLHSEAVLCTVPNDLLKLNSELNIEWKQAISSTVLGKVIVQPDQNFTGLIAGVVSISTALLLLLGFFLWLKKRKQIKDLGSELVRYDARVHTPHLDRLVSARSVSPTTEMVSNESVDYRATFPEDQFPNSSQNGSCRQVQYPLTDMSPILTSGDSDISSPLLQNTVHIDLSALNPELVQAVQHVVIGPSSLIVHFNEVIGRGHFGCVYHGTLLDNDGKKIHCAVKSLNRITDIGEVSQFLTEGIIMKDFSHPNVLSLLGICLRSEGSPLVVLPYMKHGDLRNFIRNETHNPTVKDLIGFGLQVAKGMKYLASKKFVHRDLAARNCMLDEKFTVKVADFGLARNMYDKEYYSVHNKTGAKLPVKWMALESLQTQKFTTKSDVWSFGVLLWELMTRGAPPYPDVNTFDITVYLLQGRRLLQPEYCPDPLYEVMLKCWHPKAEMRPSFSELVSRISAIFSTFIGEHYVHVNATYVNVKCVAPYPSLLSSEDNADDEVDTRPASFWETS
Protocol: as §1, with “MET D1228N” for “MET”, “a fluorescence -based” for “a fluorescence-based”, “FLPeptide30 (5-FAM-KKKKEEIYFFF -CONH2)” for “FLPeptide30 (5-FAM-KKKKEEIYFFF-CONH2)”, “MET D1228N enzyme (Signalchem, M52-12IG)” for “MET enzme (Carna Biosciences, 08-151)”, “at 0.313” for “at 0.625”

Ba/F3-TPR-MET cells = target: T3, Ba/F3-TPR-MET cells (Homo sapiens, UniProt P08581); assay: CellTiter-Glo Cell Viability Assay, Ba/F3-TPR-MET; assay type: cell-based; conditions: 72 hours
T3 construct: fused on or other part: P12270 (Nucleoprotein TPR)
T3 sequence (P08581 whole entry, change not shown, the tested form may be a part): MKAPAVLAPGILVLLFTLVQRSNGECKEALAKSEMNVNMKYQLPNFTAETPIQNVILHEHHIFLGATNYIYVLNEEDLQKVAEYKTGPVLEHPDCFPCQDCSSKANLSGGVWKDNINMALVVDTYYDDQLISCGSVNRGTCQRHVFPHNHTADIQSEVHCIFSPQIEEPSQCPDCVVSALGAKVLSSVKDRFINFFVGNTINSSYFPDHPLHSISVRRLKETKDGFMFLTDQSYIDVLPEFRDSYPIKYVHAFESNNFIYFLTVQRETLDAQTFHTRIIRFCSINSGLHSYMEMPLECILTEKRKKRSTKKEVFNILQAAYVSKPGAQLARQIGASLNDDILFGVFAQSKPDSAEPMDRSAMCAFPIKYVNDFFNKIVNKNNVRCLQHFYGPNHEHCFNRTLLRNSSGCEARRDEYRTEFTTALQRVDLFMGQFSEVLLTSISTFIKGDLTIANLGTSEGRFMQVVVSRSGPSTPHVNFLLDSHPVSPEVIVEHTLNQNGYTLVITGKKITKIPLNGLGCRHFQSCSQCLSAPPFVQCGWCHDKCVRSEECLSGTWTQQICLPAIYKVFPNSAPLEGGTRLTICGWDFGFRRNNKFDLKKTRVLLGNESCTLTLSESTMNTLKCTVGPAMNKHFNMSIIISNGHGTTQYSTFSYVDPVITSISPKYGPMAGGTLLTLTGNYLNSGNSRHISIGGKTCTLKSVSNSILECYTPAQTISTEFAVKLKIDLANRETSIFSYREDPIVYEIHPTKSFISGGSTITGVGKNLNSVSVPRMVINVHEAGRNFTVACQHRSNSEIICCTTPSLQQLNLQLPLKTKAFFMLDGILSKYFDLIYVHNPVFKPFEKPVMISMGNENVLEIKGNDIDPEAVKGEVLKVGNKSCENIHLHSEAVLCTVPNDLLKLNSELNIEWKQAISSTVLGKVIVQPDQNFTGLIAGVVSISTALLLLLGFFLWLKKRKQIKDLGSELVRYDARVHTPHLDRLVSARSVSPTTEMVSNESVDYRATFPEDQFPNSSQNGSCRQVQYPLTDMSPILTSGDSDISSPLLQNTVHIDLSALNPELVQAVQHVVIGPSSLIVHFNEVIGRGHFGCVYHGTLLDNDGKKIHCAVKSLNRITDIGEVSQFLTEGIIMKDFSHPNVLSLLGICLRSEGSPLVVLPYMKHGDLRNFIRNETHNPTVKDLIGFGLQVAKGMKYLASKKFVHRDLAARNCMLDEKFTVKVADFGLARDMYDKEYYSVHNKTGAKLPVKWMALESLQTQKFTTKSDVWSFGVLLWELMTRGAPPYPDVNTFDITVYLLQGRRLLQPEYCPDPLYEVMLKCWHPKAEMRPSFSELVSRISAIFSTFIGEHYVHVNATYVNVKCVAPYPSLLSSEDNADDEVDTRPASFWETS
Protocol: (§2) Ba/F3-TPR-MET and Ba/F3-TPR-MET-D1228N cells were seeded at 3000 cells per well in a 96 well plate in 90 μL growth media and allowed to incubate overnight at 37° C. with 5% CO2. The following day, compounds were serially diluted from a 10 mM top dose for a 9-point 3-fold dilution curve in DMSO. Following a 100-fold dilution in growth media, a further 10-fold dilution was made into the cell plate for a final volume of 100 μL and 0.1% DMSO. Compounds and cells were incubated together for 72 hours at 37° C. with 5% CO2. The CellTiter-Glo® 2.0 Assay determines the number of viable cells in culture by quantifying ATP, which indicates the presence of metabolically active cells. Luminescence readout is directly proportional to the number of viable cells in culture. CellTiter-Glo reagent (Promega, G9243) and cell plates were allowed to equilibrate to room temperature for at least 15 min, then 100 μL of CellTiter-Glo was added to each well for a 1:1 ratio of reagent to media. Samples were placed on a shaker for 2 min prior to a 30 min incubation at room temperature protected from light. Luminescence was read on a Perkin Elmer Envision plate reader 2105 and used to calculate ICso values within the Dotmatics Knowledge Solutions Studies curve fitting environment (Dotmatics, Bishops Stortford, UK, CM23) and are presented in Table 2.

[1] = target: T4, Ba/F3-TPR-MET-D1228N cells (Homo sapiens, UniProt P08581, D1228N, cells depend on it); assay: CellTiter-Glo Cell Viability Assay, Ba/F3-TPR-MET-D1228N; assay type: cell-based; conditions: 72 hours
T4 construct: fused on or other part: P12270 (Nucleoprotein TPR)
T4 sequence (P08581 whole entry D1228N, the tested form may be a part): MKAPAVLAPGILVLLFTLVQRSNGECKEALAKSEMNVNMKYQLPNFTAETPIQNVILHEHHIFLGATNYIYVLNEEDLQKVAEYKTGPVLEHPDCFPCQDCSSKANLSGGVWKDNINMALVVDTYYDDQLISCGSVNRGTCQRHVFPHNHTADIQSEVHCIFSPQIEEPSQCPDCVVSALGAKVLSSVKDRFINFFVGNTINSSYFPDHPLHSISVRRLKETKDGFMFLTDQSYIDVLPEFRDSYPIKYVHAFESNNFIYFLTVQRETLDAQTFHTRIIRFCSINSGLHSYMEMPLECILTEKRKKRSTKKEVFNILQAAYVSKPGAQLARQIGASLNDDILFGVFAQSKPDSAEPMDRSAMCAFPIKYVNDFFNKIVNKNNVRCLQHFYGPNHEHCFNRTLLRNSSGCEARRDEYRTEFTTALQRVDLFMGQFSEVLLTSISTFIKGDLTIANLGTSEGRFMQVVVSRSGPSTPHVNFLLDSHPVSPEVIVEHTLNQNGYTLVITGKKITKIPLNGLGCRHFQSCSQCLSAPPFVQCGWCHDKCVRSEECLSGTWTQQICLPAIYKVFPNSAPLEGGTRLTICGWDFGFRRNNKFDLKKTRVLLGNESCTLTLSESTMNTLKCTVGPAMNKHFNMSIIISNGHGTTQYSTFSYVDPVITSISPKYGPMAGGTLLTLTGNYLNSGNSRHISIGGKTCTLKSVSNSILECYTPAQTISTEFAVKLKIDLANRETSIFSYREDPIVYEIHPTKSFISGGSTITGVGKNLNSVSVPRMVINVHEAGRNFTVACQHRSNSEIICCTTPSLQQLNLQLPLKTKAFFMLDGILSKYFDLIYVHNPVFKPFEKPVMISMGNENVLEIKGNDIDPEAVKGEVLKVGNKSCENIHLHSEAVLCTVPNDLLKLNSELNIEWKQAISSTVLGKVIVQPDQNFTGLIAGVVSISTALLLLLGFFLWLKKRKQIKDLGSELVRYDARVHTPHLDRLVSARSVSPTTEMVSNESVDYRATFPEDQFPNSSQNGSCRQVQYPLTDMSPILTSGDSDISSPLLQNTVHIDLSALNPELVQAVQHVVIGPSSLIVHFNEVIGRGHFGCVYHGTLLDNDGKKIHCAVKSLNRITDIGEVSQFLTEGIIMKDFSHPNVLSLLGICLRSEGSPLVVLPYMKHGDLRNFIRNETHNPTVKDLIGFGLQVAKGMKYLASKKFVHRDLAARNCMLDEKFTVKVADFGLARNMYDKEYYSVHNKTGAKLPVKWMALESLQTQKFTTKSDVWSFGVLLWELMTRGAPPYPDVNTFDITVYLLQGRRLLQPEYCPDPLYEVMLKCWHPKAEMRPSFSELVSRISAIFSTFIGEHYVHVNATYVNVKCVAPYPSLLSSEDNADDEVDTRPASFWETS
Protocol: as §2

| Structure (SMILES) | IC50 (MET) | IC50 (MET D1228N) | EC50 (Ba/F3-TPR-MET cells) | EC50 [1] |
| --- | --- | --- | --- | --- |
| COc1cc2c(Oc3c(F)cc(NC(=O)c4cnccc4OC)cc3F)ccnc2cc1OCCCN1CCOCC1 [Example 30, N-(3,5-difluoro-4-((6-methoxy-7-(3-morpholinopropoxy)quinolin-4-yl)oxy)phenyl)-4-methoxypyridine-3-carboxamide] | ≤ 0.1 µM | ≤ 0.1 µM | ≤ 0.1 µM | ≤ 0.1 µM |
| CNCCOc1cc2nccc(Oc3ccc(NC(=O)c4c(OC)ccnc4F)c(F)c3F)c2cc1OC [Example 15, N-(2,3-difluoro-4-((6-methoxy-7-(2-(methylamino)ethoxy)quinolin-4-yl)oxy)phenyl)-2-fluoro-4-methoxypyridine-3-carboxamide] | ≤ 0.1 µM | ≤ 0.1 µM | 0.1 to 1 µM | 0.1 to 1 µM |
| COc1cc2c(Oc3c(F)cc(NC(=O)c4cnccc4OC)cc3F)ccnc2cc1OCCO [Example 121, N-(3,5-difluoro-4-((7-(2-hydroxyethoxy)-6-methoxyquinolin-4-yl)oxy)phenyl)-4-methoxypyridine-3-carboxamide] | ≤ 0.1 µM | ≤ 0.1 µM | ≤ 0.1 µM | ≤ 0.1 µM |
| COc1cc2nccc(Oc3c(F)cc(NC(=O)c4c(OCC(F)F)ccnc4F)cc3F)c2cc1OCCO [Example 142, N-(3,5-difluoro-4-((6-(2-hydroxyethoxy)-7-methoxyquinolin-4-yl)oxy)phenyl)-4-(2,2-difluoroethoxy)-2-fluoropyridine-3-carboxamide] | ≤ 0.1 µM | ≤ 0.1 µM | ≤ 0.1 µM | ≤ 0.1 µM |
| CNCCOc1cc2nccc(Oc3c(F)cc(NC(=O)c4cccnc4OC4CC4)cc3F)c2cc1OC [Example 78, 2-cyclopropoxy-N-[3,5-difluoro-4-({6-methoxy-7-[2-(methylamino)ethoxy]quinolin-4-yl}oxy)phenyl]pyridine-3-carboxamide] | ≤ 0.1 µM | ≤ 0.1 µM | 0.1 to 1 µM | 0.1 to 1 µM |
| COc1cc2c(Oc3c(F)cc(NC(=O)c4cnccc4OC4CC4)cc3F)ccnc2cc1OCCO [Example 97, 4-cyclopropoxy-N-(3,5-difluoro-4-{[7-(2-hydroxyethoxy)-6-methoxyquinolin-4-yl]oxy}phenyl)pyridine-3-carboxamide] | ≤ 0.1 µM | ≤ 0.1 µM | ≤ 0.1 µM | ≤ 0.1 µM |
| COc1cc2c(Oc3c(F)cc(NC(=O)c4cnccc4OC)cc3F)ccnc2cc1OC(F)F [Example 38, N-(4-((7-(difluoromethoxy)-6-methoxyquinolin-4-yl)oxy)-3,5-difluorophenyl)-4-methoxypyridine-3-carboxamide] | ≤ 0.1 µM | ≤ 0.1 µM | > 10 µM | > 10 µM |
| CNCCOc1cc2nccc(Oc3c(F)cc(NC(=O)c4cnccc4OCC(F)F)cc3F)c2cc1OC [Example 60, N-[3,5-difluoro-4-({6-methoxy-7-[2-(methylamino)ethoxy]quinolin-4-yl}oxy)phenyl]-4-(2,2-difluoroethoxy)pyridine-3-carboxamide] | ≤ 0.1 µM | ≤ 0.1 µM | ≤ 0.1 µM | ≤ 0.1 µM |
| COc1ccncc1C(=O)Nc1cc(F)c(Oc2ccnc3cc(OCCO)c(OC)nc23)c(F)c1 [Example 138, N-(3,5-difluoro-4-((7-(2-hydroxyethoxy)-6-methoxy-1,5-naphthyridin-4-yl)oxy)phenyl)-4-methoxypyridine-3-carboxamide] | ≤ 0.1 µM | ≤ 0.1 µM | ≤ 0.1 µM | ≤ 0.1 µM |
| COc1cc2c(Oc3c(F)cc(NC(=O)c4c(OC5CC5)ccnc4F)cc3F)ccnc2cc1OCCO [Example 118] | ≤ 0.1 µM | ≤ 0.1 µM | ≤ 0.1 µM | ≤ 0.1 µM |
| CNCCOc1cc2nccc(Oc3c(F)cc(NC(=O)c4cnccc4OCC(C)(C)O)cc3F)c2cc1OC [Example 66, N-(3,5-difluoro-4-((6-methoxy-7-(2-(methylamino)ethoxy)quinolin-4-yl)oxy)phenyl)-4-(2-hydroxy-2-methylpropoxy)pyridine-3-carboxamide] | ≤ 0.1 µM | ≤ 0.1 µM | 0.1 to 1 µM | 0.1 to 1 µM |
| COCCOc1ccc2c(Oc3c(F)cc(NC(=O)c4cnccc4OC)cc3F)ccnc2c1 [Example 42, N-(3,5-difluoro-4-{[7-(2-methoxyethoxy)quinolin-4-yl]oxy}phenyl)-4-methoxypyridine-3-carboxamide] | ≤ 0.1 µM | ≤ 0.1 µM | 0.1 to 1 µM | ≤ 0.1 µM |
| COc1cc2c(Oc3c(F)cc(NC(=O)c4nnccc4OC4CC4)cc3F)ccnc2cc1OCCO [Example 148, 4-cyclopropoxy-N-(3,5-difluoro-4-((7-(2-hydroxyethoxy)-6-methoxyquinolin-4-yl)oxy)phenyl)pyridazine-3-carboxamide] | ≤ 0.1 µM | ≤ 0.1 µM | ≤ 0.1 µM | ≤ 0.1 µM |
| CNCCOc1cc2nccc(Oc3c(F)cc(NC(=O)c4cnccc4OC4CC4)c(F)c3F)c2cc1OC [Example 93, 4-cyclopropoxy-N-[2,3,5-trifluoro-4-({6-methoxy-7-[2-(methylamino)ethoxy]quinolin-4-yl}oxy)phenyl]pyridine-3-carboxamide] | ≤ 0.1 µM | ≤ 0.1 µM | ≤ 0.1 µM | ≤ 0.1 µM |
| CCOc1ccncc1C(=O)Nc1ccc(Oc2ccnc3cc(OCCNC)c(OC)cc23)c(F)c1F [Example 16, N-(2,3-difluoro-4-((6-methoxy-7-(2-(methylamino)ethoxy)quinolin-4-yl)oxy)phenyl)-4-ethoxypyridine-3-carboxamide] | ≤ 0.1 µM | ≤ 0.1 µM | 0.1 to 1 µM | 0.1 to 1 µM |
| O=C(Nc1cc(F)c(Oc2ccnc3cc(OCCO)ccc23)c(F)c1)c1cnccc1OC1CC1 [Example 100, 4-cyclopropoxy-N-(3,5-difluoro-4-{[7-(2-hydroxyethoxy)quinolin-4-yl]oxy}phenyl)pyridine-3-carboxamide] | ≤ 0.1 µM | ≤ 0.1 µM | 0.1 to 1 µM | ≤ 0.1 µM |
| COc1cc2nccc(Oc3c(F)cc(NC(=O)c4cnccc4OC)cc3F)c2cc1O[C@@H](C)CO [Example 126, (S)-N-(3,5-difluoro-4-{[6-((1-hydroxypropan-2-yl)oxy)-7-methoxyquinolin-4-yl]oxy}phenyl)-4-methoxypyridine-3-carboxamide] | ≤ 0.1 µM | ≤ 0.1 µM | ≤ 0.1 µM | ≤ 0.1 µM |
| CNCCOc1cc2nccc(Oc3c(F)cc(NC(=O)c4cnccc4OC[C@H](C)O)cc3F)c2cc1OC [Example 64, (S)-N-(3,5-difluoro-4-((6-methoxy-7-(2-(methylamino)ethoxy)quinolin-4-yl)oxy)phenyl)-4-(2-hydroxypropoxy)pyridine-3-carboxamide] | ≤ 0.1 µM | ≤ 0.1 µM | 0.1 to 1 µM | 0.1 to 1 µM |
| COc1cc2nccc(Oc3c(F)cc(NC(=O)c4cnccc4OC4CC4)cc3F)c2cc1OC [Example 91, 4-cyclopropoxy-N-{4-[(6,7-dimethoxyquinolin-4-yl)oxy]-3,5-difluorophenyl}pyridine-3-carboxamide] | ≤ 0.1 µM | ≤ 0.1 µM | ≤ 0.1 µM | ≤ 0.1 µM |
